Reference: patent publication US7671077B2, “Neuroprotective small organic molecules, compositions and uses related thereto” (priority 2004, dated 2010)
“Also recorded” adds a separate entry of the source.

Tests used:
GFAP-positive cells = assay: GFAP immunostaining, astrocyte count in midbrain cultures; assay type: cell-based, rat; settings: midbrain culture, DIV 7
Experimental: (§1) Primary midbrain cultures were prepared from rat embryo ventral mesencephalon as described previously by Lin et al (1994). In brief, rostral mesencephalic tegmentum of embryonic day 16 rat embryos was collected in DMEM/F12 (Hyclone SH30023.01) containing 2 mM glutamine on ice, The tissue was treated with 0.1% trypsin in Hanks' balanced salt solution (HBSS, Gibco 14175-095) for 15 min at 37° C. and dissociated mechanically by mild trituration with a fire-polished glass pipet in growth medium plus 2% heat-inactivated fetal bovine serum (FBS). […]
(§2) The primary antibodies were: anti-TH monoclonal (1:400, Boehringer-Mannheim); anti-GFAP polyclonal (1:200, DAKO); anti-NSE polyclonal (1:2000, Polysciences Inc.); anti-tryptophan hydroxylase polyclonal (TPH) (1:500, Eugene Tech) and anti-islet-1 monoclonal (1:100, Developmental Studies Hybridoma Bank). […] Process-bearing TH-positive cells were counted at 100× magnification in consecutive fields covering the whole 16-mm-diameter culture well. GFAP-positive cells were counted in half the culture well. NSE-positive cells were counted in 3 photographed fields.

TH-positive neurons = assay: TH immunostaining and count of TH-positive neurons in midbrain cultures; assay type: cell-based, rat
Experimental: as §1, §2

NSE-positive cells = assay: NSE immunostaining, total neuron count in midbrain cultures; assay type: cell-based, rat; settings: 2.5 μM; DIV 0, 5 or 7; versus untreated
Experimental: as §1, §2

GABA-containing neurons = assay: GABA uptake assay in midbrain cultures; assay type: cell-based, rat; settings: midbrain culture, DIV 8, concentration range that increased DA uptake
Experimental: (§3) Primary midbrain cultures were prepared from rat embryo ventral mesencephalon as described previously by Lin et al (1994). In brief, rostral mesencephalic tegmentum of embryonic day 16 rat embryos was collected in DMEM/F12 (Hyclone SH30023.01) containing 2 mM glutamine on ice, The tissue was treated with 0.1% trypsin in Hanks' balanced salt solution (HBSS, Gibco 14175-095) for 15 min at 37° C. and dissociated mechanically by mild trituration with a fire-polished glass pipet in growth medium plus 2% heat-inactivated fetal bovine serum (FBS). The growth medium consisted of equal volumes of Dulbecco's minimal essential medium DMEM (Gibco 12100-046) and HAM's F12 nutrient mixture (Gibco 21700-075) supplemented with 33 mM glucose, 13 mM sodium bicarbonate, 5 mM HEPES, 2 mM glutamine, 25 μg/ml insulin, 100 μg/ml transferrin, 60 μM putrescine, 20 nM progesterone, 30 nM sodium selenite, 5 U/ml penicillin G and 5 μg/ml streptomycin. 24-well tissue culture plate was coated by adding 15 μg/ml poly-1-ornithine hydrobromide solution at 0.5 ml/well, incubated at room temperature for 1 hr. The coating solution was removed and the well washed 3 times with distilled water and one wash with HBSS. The dissociated cells were plated onto polyornithine-coated wells at 250,000-350,000 trypan blue-excluding viable cells per well in 500 μl of above medium containing 1% FBS. […]

[1] = tested on: serotonergic neurons of hindbrain culture; assay: Serotonin (5-HT) uptake assay in primary hindbrain cultures; assay type: cell-based, rat
TH^+ cells = assay: Staining for apoptotic DA neurons (TH / Hoechst 33258); assay type: cell-based, rat; settings: 2.5 μM added at plating; DIV 13
Experimental: as §1
To measure the percent of DA neurons undergoing apoptosis after different treatments, DIV-13 cultures (which were medium changed twice on DIV 5 and 9) were first stained with an anti-TH antibody and with FITC-conjugated goat anti-mouse secondary antibody (1:200, Jackson Lab) for 1 h at room temperature to label DA neurons. […] Cells were viewed under an inverted fluorescence microscope (Olympus) equipped with appropriate filters. Healthy and apoptotic TH^+ cells TH^+ cell numbers were counted in the entire area of each well by an observer who is blinded to the treatment.

serotonergic neurons = assay: Serotonin (5-HT) uptake assay in midbrain cultures; assay type: cell-based, rat; settings: midbrain culture, DIV 8, concentration range that increased DA uptake
Experimental: as §3

islet-1^+ motoneurons = assay: islet-1 immunostaining, motoneuron count in midbrain cultures; assay type: cell-based, rat; settings: 2.5 μM; DIV 1, 2 and 3
Experimental: as §1, §2

TH^+ neurons = assay: MPP^+ induced neurotoxicity in midbrain cultures; assay type: cell-based, rat; settings: 2 μM MPP^+ for 36 h; 2.5 μM compound; control cultures lost 48%
Experimental: FIG. 34 depicts mechanism of compound A effect in midbrain cultures. 2.5 μM compound A was added at the time of plating. (A) Compound A reduces the rate of apoptosis of TH-positive cells. *p<0.05 versus Con, Student's t test. (B) Compound A protects TH-positive cells from MPP^+ induced neurotoxicity. Cultures at DIV 4 were treated with 2 μM MPP^+ (open bars) for 36 hrs, and processed for TH staining. *p<0.05 versus corresponding cultures not treated with MPP^+ (solid bars). #p<0.05 versus corresponding cultures without Compound A, Student's t test. Data represent averages (n=3) with SD shown in error bars.
Primary midbrain cultures were prepared from rat embryo ventral mesencephalon as described previously by Lin et al (1994). […]
The primary antibodies were: anti-TH monoclonal (1:400, Boehringer-Mannheim); anti-GFAP polyclonal (1:200, DAKO); anti-NSE polyclonal (1:2000, Polysciences Inc.); anti-tryptophan hydroxylase polyclonal (TPH) (1:500, Eugene Tech) and anti-islet-1 monoclonal (1:100, Developmental Studies Hybridoma Bank). […] Process-bearing TH-positive cells were counted at 100× magnification in consecutive fields covering the whole 16-mm-diameter culture well. GFAP-positive cells were counted in half the culture well. NSE-positive cells were counted in 3 photographed fields. […]

[2] = tested on: midbrain dopaminergic neurons; assay: Dopamine (DA) uptake assay in primary midbrain cultures; assay type: cell-based, rat
How it was run: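 Cultures from E16 rat ventral mesencephalon were given serial sample dilutions within 24 h of plating and grown serum-free for 7 days at 37 °C. Uptake of 50 nM [3H]DA measured for 20 min at 37 °C by scintillation; background defined with 0.5 mM GBR-12909, forskolin 25 μM as positive control.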

TPH^+ cells = assay: TPH immunostaining in primary hindbrain cultures; assay type: cell-based, rat; settings: hindbrain culture, DIV 13
[3] = tested on: midbrain dopaminergic neurons; settings: Lin et al. 1993, 1994; cited from earlier work

## O=C(/C=C/c1ccccc1Cl)Nc1ccc(S(=O)(=O)Nc2nccs2)cc1 [Compound A]
GFAP-positive cells
  GFAP-positive cell numbers: does not affect GFAP^+ cell number; also recorded: not affected
TH-positive neurons; 2.5-5 μM added once at the time of plating, day 7 or day 12
  number of TH positive neurons (dopaminergic neuron survival): promotes survival of TH^+ neurons; also recorded: about twice as many DA neurons
TH-positive neurons; mesencephalic cultures
  tyrosine hydroxylase (TH) immunoreactivity: upregulated
NSE-positive cells
  NSE-positive cell numbers: does not increase total number of NSE^+ cells; also recorded: indistinguishable from the non-treated control wells
GABA-containing neurons
  GABA uptake: does not lead to an increase in GABA or 5-HT uptake; also recorded: Neither GABA (FIG. 33C) nor serotonin (FIG. 33D) uptake was significantly affected
GABA-containing neurons; listed as CUR-162590
  GABA uptake: little, if any, effect
[1]; 10 μM
  cytotoxicity on the hindbrain culture (inhibition of serotonin uptake): showed cytotoxicity on the hindbrain culture
[1]; DIV 8, concentrations necessary for increasing dopamine uptake in midbrain culture
  serotonin uptake in hindbrain culture: does not change either the number of TPH^+ cells nor the amount of serotonin uptake in hindbrain cultures; also recorded: nor did it increase serotonin uptake in the hindbrain culture
TH^+ cells
  reduction of the rate of apoptosis of TH^+ cells: about 50%
Serotonergic neurons
  serotonin (5-HT) uptake: does not lead to an increase in GABA or 5-HT uptake; also recorded: Neither GABA (FIG. 33C) nor serotonin (FIG. 33D) uptake was significantly affected
Serotonergic neurons; listed as CUR-162590
  serotonin (5-HT) uptake: little, if any, effect
islet-1^+ motoneurons
  number of islet-1^+ motoneurons: 115-150 % of control
TH^+ neurons
  loss of TH^+ neurons after MPP^+: 20%
[2]; 2.5 μM compound A added to a maximally effective concentration of GDNF
  DA uptake on conjoint treatment with GDNF: additive effect; also recorded: increased DA uptake above that reached by either GDNF or compound A alone; also recorded: at least as potent as that of forskolin
[2]; Rattus norvegicus, Neuron, compound concentration 2.5 μM, midbrain culture, read-out: DA uptake % of control
  activity at 2.5 µM: 240%
[2]; Rattus norvegicus, Neuron, DIV 6, varied between different experiments, read-out: maximal stimulation of DA uptake
  Emax: 180 to 280%
[2]; dose-dependent effect, FIG. 32A, 7 DIV
  concentration of maximal effect on DA uptake: around 2.5 μM
[2]; midbrain culture
  concentration at which the compound was toxic and decreased DA uptake: above 10 μM
[2]; midbrain culture, 7 DIV
  stimulation of DA uptake (in words): stimulates dopamine (DA) uptake in a dose-dependent manner
TPH^+ cells
  survival / number of TPH^+ neurons: does not change either the number of TPH^+ cells nor the amount of serotonin uptake in hindbrain cultures; also recorded: did not promote the survival of neurons immunoreactive for the key serotonin-synthesizing enzyme TPH

B1: GDNF: glial cell line-derived neurotrophic factor (protein, UniProt P39905 78-211, looked up)
Glial cell line-derived …: SPDKQMAVLPRRERNRQAAAANPENSRGKGRRGQRGKNRGCVLTAIHLNVTDLGLGYETKEELIFRYCSGSCDAAETTYDKILKNLSRNRRLVSDKVGQACCRPIAFDDDLSFLDDNLVYHILRKHSAKRCGCI
[3]
  concentration at which the effect on DA uptake plateaus: around 1 ng/ml
